Publication PMC12040169 (PLOS Biology, 2025)

Assay: in vitro
Settings: human, hela cells, % viability

Row | SMILES | viability at 28.5 h, 10 µM
1 | Cc1nn(CCC#N)c(C)c1[C@@H]1C=C[C@@H](NC(=O)Nc2ccc(Cl)cc2)C1 [CBK288803] | 95.8%
2 | COc1ccc(C(=O)N(C)Cc2cnn(C)c2)cc1Br [CBK305149] | 84.8%
3 | CC1=NN(c2ccccc2)C(=O)/C1=C\c1ccc(Cl)cc1 [CBK067772] | 96.7%
4 | c1ccc(C2(CN3CCN(Cc4cccnc4)CC3)CC2)cc1 [CBK282793] | 117%
5 | O=C(N/N=C\C=C\c1ccco1)c1ccc([N+](=O)[O-])cc1 [CBK261961] | 102%
6 | CS(=O)(=O)N1CC2(CCN(Cc3ccc4nsnc4c3)CC2)c2ccccc21 [CBK136957] | 92.9%
7 | Cc1nc(N)sc1-c1nnc(SCC(=O)Nc2ccccc2C(F)(F)F)n1C [CBK267359] | 99.5%
8 | COCCN(Cc1cc2cccc(C)c2nc1O)S(C)(=O)=O [CBK269395] | 99.9%
9 | CC(=O)N1C[C@H](c2ccsc2)[C@H]2CN(Cc3cccs3)CC[C@H]21 [CBK284586] | 109%
10 | CN(C)c1ncnc2[nH]ncc12 [CBK016810] | 115%
11 | CSCCCNC(=O)N(C)C1CCN(C)C1 (centres unmarked) [CBK155995] | 104%
12 | COc1ccc(C(C)C)cc1-c1nccnc1N1CCCN(C)CC1 [CBK036677] | 110%
13 | Cc1cc2c(s1)c1cnn(CC(=O)NCC3CC3)c(=O)c1n2C [CBK284222] | 91.2%
14 | O=C(CSc1nc2ccccc2o1)N1c2ccccc2Sc2ccc(C(F)(F)F)cc21 [CBK018044] | 91.1%
15 | COc1ccc([C@@]2(O)CC[C@@H]3CN(C(=O)C4CCCC4)C[C@@H]32)cc1 [CBK285260] | 85%
16 | O=C(CSCC(=O)Nc1ccc2ccccc2c1)NCC1CCCO1 (centres unmarked) [CBK058183] | 89.6%
17 | COc1cnc(-c2cnn(C)c2)c(NC(=O)c2ccco2)n1 [CBK145329] | 103%
18 | COc1ccc(CCNc2ncnc3c2cnn3-c2ccc(Cl)cc2)cc1OC [CBK265804] | 105%
19 | CCCn1c(C)cc2cc(NC(=O)Cn3ccnc3)ccc21 [CBK281549] | 92.4%
20 | O=C(Nc1cccc2ccccc12)N1CCC(n2c(=O)[nH]c3ccccc32)CC1 [CBK149858] | 85%
21 | COc1cccc(C(=O)Nc2nc(-c3ccc(S(=O)(=O)N4CCCC4)cc3)cs2)c1 [CBK096257] | 89%
22 | Cc1ccc(-c2cc(C(=O)NCC3(C)COC3)no2)cc1 [CBK281744] | 93.8%
23 | O=C1CN(C(=O)NC(c2ccccc2)c2ccccc2)CCN1 [CBK155853] | 93.6%

Row | SMILES | viability at 28.5 h, 10 µM
24 | O=C1NCCNC(=O)C2(CCCCOc3ccccc31)CCNCC2 [CBK292074] | 108%
25 | O=C(c1ccno1)N1Cc2ccccc2C1 [CBK200327] | 97%
26 | O=c1[nH]c2ncc(-c3cncc4ccccc34)nc2n1CCCO [CBK064814] | 96%
27 | CCCn1ccnc1CNc1nc2c(s1)c(C)nn2C [CBK307254] | 84.3%
28 | Cn1c(=O)c2[nH]c(N3CCN(c4cccc(O)c4)CC3)nc2n(C)c1=O [CBK269760] | 104%
29 | CCCN(CC1CC1)C(=O)CC1SC(NCC2CCCCC2)=NC1=O (centres unmarked) [CBK067014] | 104%
30 | Cc1cc(NC(=O)C2CCN(C(=O)c3cnc(N)c(Cl)c3)CC2)no1 [CBK305545] | 110%
31 | CC(Oc1ccc(Cl)cc1Cl)C(=O)N1CCN(Cc2ccc3c(c2)OCO3)CC1 (centres unmarked) [CBK074438] | 95.2%
32 | O=C(CN1C(=O)COc2ccc(Cl)cc21)Nc1ccc2[nH]c(=O)[nH]c2c1 [CBK268295] | 111%
33 | CCC(CNC(=O)c1ccoc1C)N1CCCC1 (centres unmarked) [CBK304798] | 88.9%
34 | O=C(Cc1c[nH]c2ccccc12)Nc1ccccc1N1CCNCC1 [CBK028288T] | 98.1%
35 | COc1ccccc1CNC(=O)c1cccc(C)c1[N+](=O)[O-] [CBK265703] | 87.8%
36 | CN(C)c1cccc(Oc2nc3c(c(=O)n(C)c(=O)n3C)n2C)c1 [CBK270109] | 97.8%
37 | O=C(COc1cccc2ccccc12)Nc1cccnc1 [CBK263015] | 115%
38 | O=C(C(Cc1ccccc1)c1ccccc1)N1CCC2(CCN(CCCCOc3ccccc3)C2)C1 (centres unmarked) [CBK160643] | 101%
39 | O=C(O)CCn1c(CO)nc2ccccc21 [CBK111473] | 115%
40 | CC(C)(C)NS(=O)(=O)c1ccc(NC(=O)c2cc(-c3ccccn3)nc3c(Cl)cccc23)cc1 [CBK267783] | 99.6%
41 | CCN(C(=O)c1ccncc1)C(CC1CCCCC1)c1ccccc1 (centres unmarked) [CBK061674] | 86.9%
42 | CC(C)C[C@@H]1N[C@H](C(=O)NC2CC2)Cc2cn(Cc3nccn3C)c3cccc1c23 [CBK289423] | 108%
43 | NC(=O)CN1CCCc2ccccc21 [CBK138343] | 90%
44 | COC(=O)C1C(=O)Oc2ccc3ccccc3c2C1C(C)C(=O)c1ccc(Br)cc1 (centres unmarked) [CBK266126] | 114%
45 | CO[C@@H](C(=O)Nc1cnc(-c2cccc(C)c2)c(-c2ccco2)n1)c1ccccc1 [CBK037613] | 105%
46 | Cc1ccc(-c2nnc(SCc3cccc4nsnc34)n2C)cc1 [CBK269706] | 92.7%

Row | SMILES | viability at 28.5 h, 10 µM
47 | COCCc1ccccc1NC1CCN(c2nccs2)CC1 [CBK305476] | 91.2%
48 | Cc1sc(NC(=O)c2ccccc2)c(C(Nc2ccccn2)c2ccc(F)cc2)c1C (centres unmarked) [CBK296957] | 89.7%
49 | Cc1ccc(CNc2c(-c3ccco3)nc3cnccn23)cc1 [CBK283693] | 89.3%
50 | O=C(Nc1cc(Oc2ccc(F)cc2)cc(Oc2cccnc2)c1)c1nn2c(C(F)(F)F)cc(-c3cccs3)nc2c1Cl [CBK262568] | 93.1%
51 | CC(Cc1c[nH]c2ccccc12)NC(=O)CN (centres unmarked) [CBK218213C] | 100%
52 | COc1ccccc1-c1ncc(OCC(F)(F)F)nc1NC(=O)c1ccco1 [CBK145277] | 98.3%
53 | CCOC(=O)N1CCN(c2cc3[nH]c(S)nc3cc2F)CC1 [CBK288444] | 89.9%
54 | CCN(CC)C(=O)C1CCCN(C2CCN(C(=O)c3c4ccccc4cc4ccccc34)CC2)C1 (centres unmarked) [CBK066966] | 102%
55 | COc1ccc(C(NC(=O)C2CCN(Cc3ccc4c(c3)OCO4)CC2)c2ccccc2C)cn1 (centres unmarked) [CBK081453T] | 121%
56 | COC(=O)c1c(N=C(S)Nc2ccc(CC(=O)O)cc2)sc(C)c1C [CBK267111] | 96.4%
57 | N#Cc1ccc(CSc2ncccc2C(=O)O)cc1 [CBK287187] | 85.9%
58 | CCN(CC)CCn1nc2n(c1=O)-c1ccccc1SC(c1ccccc1)C2 (centres unmarked) [CBK016064] | 91.9%
59 | CCCCCc1c(C)nc(-c2ccccn2)nc1O [CBK017441] | 86.4%
60 | CCN(CCO)c1ccc(Nc2cc(-c3cc(C(F)(F)F)cc(C(F)(F)F)c3)ncn2)cc1 [CBK090994] | 106%
61 | Cc1ccccc1C(c1cnccn1)N(C)C(=O)C1CCN(S(=O)(=O)C(C)C)CC1 (centres unmarked) [CBK060242] | 101%
62 | COCCNCc1ccc(OCc2ccccc2)cc1 [CBK270133C] | 91.1%
63 | CC(=O)Nc1ccc(CNC(=O)c2ccoc2C)cc1 [CBK305010] | 114%
64 | O=C(Nc1ccc2nc(SCc3ccc([N+](=O)[O-])cc3)sc2c1)c1ccccc1 [CBK263427] | 98.4%
65 | O=C(COc1ccc(Cl)cc1Br)NNC(=O)c1ccc(O)cc1 [CBK262950] | 95.5%
66 | Cc1ccc(C(=O)N2CCN(C)CC2)c(N2CCOCC2)n1 [CBK106199] | 100%
67 | CC(C)C(=O)N1C2CCC1Cn1c(nc3ccccc3c1=O)C2 (centres unmarked) [CBK284450] | 85.3%
68 | CCC(C)NC(=O)CN1CCN(Cn2nnc3ccccc3c2=O)CC1 (centres unmarked) [CBK305032] | 100%
69 | O=C(c1ccccc1F)N1CC2CCCC(C1)C2N1CCOCC1 (centres unmarked) [CBK285262] | 79.9%

Row | SMILES | viability at 28.5 h, 10 µM
70 | CN(C)S(=O)(=O)CCNC(=O)c1ccc(-c2ccccc2CO)cc1 [CBK306773] | 95.6%
71 | O=C(Nc1ccc(Cl)c(Cl)c1)N1CCN(c2n[nH]c(=O)[nH]c2=O)CC1 [CBK297514] | 89.4%
72 | NC(=O)CN1CC2(CCN(Cc3ccc(Cl)c(Cl)c3)CC2)c2ccccc21 [CBK126775] | 109%
73 | O=C(O)COc1ccc2c(=O)c(Oc3ccc(Cl)cc3)c(C(F)(F)F)oc2c1 [CBK296087] | 119%
74 | CCOc1ccc(CC(=O)NC[C@H]2CC[C@H](c3cc(C(N)=O)c4ccccc4n3)CC2)cc1 [CBK285899] | 92.2%
75 | Cc1c(-c2cc(C(=O)NC(C)C3CC4CCC3C4)no2)cnn1C (centres unmarked) [CBK281653] | 91.3%
76 | Cc1cc(C)nc(-n2ncc(C#N)c2NC(=O)c2ccccc2)n1 [CBK288135] | 111%
77 | Cc1cc(C)n(CCCn2cncc2-c2cn(C)nc2C)n1 [CBK281772] | 94.8%
78 | Cc1nc(CC(=O)Nc2nn(C)c3cccc(N4CCOCC4)c23)cs1 [CBK306627] | 89.7%
79 | CCNS(=O)(=O)c1ccc(NS(=O)(=O)Cc2ccccc2)cc1 [CBK268257] | 100%
80 | O=C(O)Cc1nc(-c2ccccc2)c(-c2ccccc2)s1 [CBK159470] | 99.4%
81 | CCOC(=O)CN1CCC(Oc2cncc(OCC3COc4ccccc4O3)n2)C1 (centres unmarked) [CBK084375] | 92.6%
82 | CCc1nc2ccccc2n1CC(=O)N(CCC#N)Cc1cccnc1 [CBK304892] | 87.7%
83 | O=C(CSc1nnnn1C1CC1)Nc1ccc(CN2CCOCC2)cc1 [CBK305857] | 99.2%
84 | Cc1c(C)n(CC(=O)O)c2ccccc12 [CBK000884] | 97%
85 | COc1cc(-c2cnc3[nH]c(=O)n(C4CCOCC4)c3n2)cc(OC)c1OC [CBK064255] | 94.6%
86 | O=C(O)CSc1nc2ccc(NC(=O)c3ccccc3Cl)cc2s1 [CBK299791] | 110%
87 | Cc1noc2nc(-c3ccco3)cc(C(=O)NCc3nc4ccccc4[nH]3)c12 [CBK295608] | 93.5%
88 | CC(=O)NCCCSCc1cn2cccc(C)c2n1 [CBK304809] | 98.5%
89 | CCn1cc(C(=O)N2CCN(Cc3ccco3)C[C@@H]2C(C)C)c(C)n1 [CBK285488] | 110%
